Assay results as given in US20190216848A1, “New Use of Product for Skin Treatment” (BioCool AB, priority 2016, published 2019).
“Also recorded” adds a separate entry of the source. Values belong to the compound of their own block, whether it stands above or below them.

What was measured:
microorganisms = details: within the range of 0.5-4% of hydrogen peroxide
[1] = tested on: patients with acne vulgaris; details: references (9), (10), (12); cited from earlier work
[2] = tested on: patients diagnosed with moderate acne (Acne vulgaris); details: four weeks of treatment
Description: Treatment and follow-up: On the first visit to a doctor, patients received the same information and instructions as given by the manufacturer BioCool®. Each patient received the sodium percarbonate at home. The jars of powder were unmarked but if the patient wished to know the content they were informed. All processing was done at residences of the patient by the patient. 5 ml of sodium percarbonate was dissolved in 5 ml of water at a temperature of 35-40° C. to form a solution. The solution was applied to the face using the fingers, and washed away with tap water after 5 minutes. This procedure was repeated daily by the patient. After about one hour after the treatment the subjects could, if desired, lubricate the skin with a moisturizing product, allowing enough time for the skin pores to close up for any additional product. Follow-up visits occurred weekly for four weeks. At each visit, the patient had completed the rating scale DLQ (Dermatology Life Quality Index), they were photographed and subject to an open interview.
Interview: The patient's subjective experience was investigated with a semi-structured interview based on the query field (8). The interview was conducted by research doctors. […] No recording method was used.

[3] = tested on: patients diagnosed with moderate acne (Acne vulgaris); assay: Acne vulgaris pilot study: blinded acne papule counting from photographs; type: in vivo, human
Description: A study consisted of a total of 16 patients, 2 males and 14 females. Mean age was 28±7 years. The study included men and women, previously healthy, between 18-45 years, not using contraception, not breastfeeding or pregnant, and having been diagnosed with moderate acne. Patients with ongoing treatment for acne vulgaris were excluded or treatment was withdrawn one month before the start of the study. Also, patients who could not follow instructions and who were assumed to have poor compliance were excluded.
(§1) Statistical Methods: Dropouts included in the result were 2 patients. These patients were followed up at the doctor's appointment number 2 and the results were included in the so-called “intention to treat” where the values produced two visits was the same for the coming weeks for follow-up visits. The statistical analysis used was t-test and Wilcoxon rank-sum test.
(§2) Each patient received the sodium percarbonate at home. […] This procedure was repeated daily by the patient. […] Follow-up visits occurred weekly for four weeks.
(§3) Photography: Each patient was photographed prior to initiation of treatment, and weekly for four weeks. Portrait photo is taken from the front and profile of each view of the face. Photos were taken with the same camera and camera settings and the same photographer. The same light was used by 45-degree angle. However, technology is not validated and all the photos were not taken exactly the same. Each patient was encoded by the study manager with a number. After all the photos were taken, outside observers (fellow doctor) counted the number of acne papule for each patient for each visit, without knowing the visit week during which the photo was taken. The number of acne papules was summed up by frontal view, as well as by the two side views. Results were calculated as an average of the number of acne papule for each visit at the group level. DLQ survey summed with points for each patient for each visit. Even this was calculated with the average at group level.

[4] = Duration of effectiveness of the prepared aqueous solution; type: physicochemical; details: 1-5 g in 0.05-1 dl of water at 35-40° C.; effectiveness gradually decreases
Description: The solution obtained according to the method above is effective for about 24 h. […] A new solution must be prepared after 24 hours as the effectiveness of the singlet oxygen in the solution has decreased below an efficient level for treatment. The solution is to be applied to the face and/or affected skin at least once daily.

[5] = tested on: patients diagnosed with moderate acne (Acne vulgaris); assay: Acne vulgaris pilot study: DLQ (Dermatology Life Quality Index) symptom rating; type: in vivo, human
Description: as §1, §2
as §3, with “taken. […]” for “taken. The number of acne papules was summed up by frontal view, as well as by the two side views.”, “level. […]” for “level. DLQ survey summed with points for each patient for each visit.”, “level. […]” for “level.”

[6] = tested on: individuals with diabetes and neuropathy, feet with moderate to severe skin conditions; assay: Diabetic Peripheral Neuropathy foot bath study: skin condition of the feet by photos; type: in vivo, human; details: for Condition of the feet / skin condition, visual (photos): all patients included, daily foot bath per study protocol, 6 weeks, preliminary results
Description: I. Improvement in skin condition evaluated by photos according to a pre-set scale (1-5): The target population include in this evaluation are adult individuals with diabetes and neuropathy, with feet with moderate to severe skin conditions 7.1.3 Frequency of application. Daily application for 6 weeks or until the signs and symptoms are cleared, then once a week. 1. Start by placing the feet in the footbath, containing 2-3 litres (about 1 gallon) of lukewarm water (about 38° C.). Measure out 15 ml (about 1 tbs.) of granules and add to the footbath. NB! The order is important, the feet must be in the bath before adding the granules. 2. Bathe the feet for about 20 minutes This is a 6-week, single centre, open label evaluation conducted in patients suffering from Diabetic Feet of neuropathic origin with moderate to severe non ulcer pathology (dry skin, cracks, callosities) 9.2 STUDY FLOW CHART visits 0 and 6 weeks for photos, skin evaluation, test protocol and evaluation of safety and concordance At each visit a required medical evaluations is performed at inclusion (0) and 6 weeks (+/−3 days). A photograph is performed and a test protocol is followed regarding skin condition. Any local and general intercurrent events (expected or unexpected) are recorded. Patients receive a patient care diary at their first visit. Investigators are allowed to see patients more frequently if required. 11.3 EVALUATION CRITERIA Improvement of skin condition evaluated by photos analysed by independent observers

SMILES: OO [hydrogen peroxide]
Effect on killing off microorganisms with increasing concentration (microorganisms): practically the same
Number of acne papules / efficacy in literature study [1]: at least as good
Safety / tolerance in literature study [1]: better tolerance for skin

Time the prepared solution is effective [4]: about 24 h
SMILES: O=C([O-])[O-].O=C([O-])[O-].OO.OO.OO.[Na+].[Na+].[Na+].[Na+] [Sodium percarbonate, sodium percarbonate]
Patients' description of their skin in interviews [2]: cleaner, smoother, softer and firmer
Number of acne papule over time (in words) ([3]; 4 weeks of treatment): clearly reduced; also recorded: significantly decreased
Papule count, mean ([3]; after 4 weeks of daily topical treatment (5 ml in 5 ml water, 5 minutes), SD 10.2, p <0.001 vs before): 18.3
Papule count, mean ([3]; before treatment (baseline), 16 patients, SD 12.4): 25.4
Time to apparent effect on the appearance of new papules ([3]; topical treatment of Acne vulgaris): ≤ 2 weeks
DLQ symptom rating, median ([5]; after 4 weeks of daily topical treatment, interquartile range 2, p 0.002): 1.5
DLQ symptom rating, median ([5]; before treatment (baseline), interquartile range 4): 3
Condition of the feet (photos), patient No. 01 ([6]; FIG. 4, after 6 weeks of treatment): The large crack on the right heel has significantly improved
Condition of the feet (photos), patient No. 06 ([6]; FIG. 5, before vs after treatment): the ulcer has declined in size
Condition of the feet (photos), patient No. 9 ([6]; FIG. 6, before vs after treatment): the hardened patches are no longer present
Condition of the feet / skin condition, visual (photos) [6]: significant visual improvement
Condition of the feet / skin condition, visual (photos) ([6]; listed as sodium percarbonate): significant improvement of the skin condition

SMILES: COc1ccc(-c2ccc3cc(C(=O)O)ccc3c2)cc1C12CC3CC(CC(C3)C1)C2 [Adapalene]
Number of acne papules / efficacy in literature study [1]: significant reduced
Safety / tolerance in literature study [1]: safe and effective

SMILES: O=C(OOC(=O)c1ccccc1)c1ccccc1 [benzoyl peroxide]
Number of acne papules / efficacy in literature study [1]: significant reduced
Safety / tolerance in literature study [1]: safe and effective
